How the values were obtained:
[1] = Liver Microsome Stability Assay (human); conditions: human liver microsomes, with NADPH, 1.0 uM compound
Procedure: (§3) Stability of a compound was assessed in the presence of liver microsomes from various sources—mouse, rat, monkey and human liver microsomes. 1.0 uM compound, 0.4% DMSO in 0.1 M Potassium Phosphate with 1.0 mg/mL liver microsomes, were incubated at 37° C. with or without 1 mM NADPH. The samples were quenched at 0, and 30 minutes.

[2] = Liver Microsome Stability Assay (monkey); conditions: monkey liver microsomes, with NADPH, 1.0 uM compound
Procedure: as §3

[3] = Liver Microsome Stability Assay (mouse); conditions: mouse liver microsomes, with NADPH, 1.0 uM compound
Procedure: as §3

[4] = Liver Microsome Stability Assay (rat); conditions: rat liver microsomes, with NADPH, 1.0 uM compound
Procedure: as §3

[5] = tested on: multiple myeloma cell line U266B1; experiment: U266 Cell Viability Assay; assay type: cell-based, human; conditions: Homo sapiens, U-266, 48 h, U266B1 cells, Celltiter-Glo
Procedure: (§1) The human multiple myeloma cell line U266B1 was cultured in RPMI 1640 media supplemented with 10% fetal bovine serum, 2 mM Glutamine, and 1× Penicillin/Streptomycin. Cells were plated in 384-well tissue culture plates and treated with compound dilutions in DMSO/media. Plates were incubated at 37° C., 5% CO2 for 48 hours. After 48 hours, Celltiter-Glo® (Promega) was added to each well and luciferase signal was quantified using Tecan Infinite M1000 Pro for cell viability determination.
(§2) For chemical structures that include one or more stereoisomers, but are illustrated without indicating stereochemistry, the assay data refers to a mixture of stereoisomers.

[6] = tested on: PD1-ss+10aa/Gaussia Luciferase; experiment: Dox-Induced PD1-ss-Gluc Assay; assay type: cell-based; conditions: 24 hr Dox induction; 293FRT/TO cells; mean; read-out: 24 hr Dox Inducible PD1ssGluc 293FRT/TO: Mean IC50
From the text: Flp-In 293 T-REx™ cells were transfected with pcDNA™5/FRT/TO plasmid inserted with cDNA encoding Gaussia Luciferase fused to the 3′ end of cDNA encoding PD1 signal sequence plus 10 amino acids (N-[…]-C) (SEQ ID NO: 1). Transfected cells were selected for resistance to the selectable markers Hygromycin and Blasticidin to create a stable cell line that contained the PD1-ss+10aa/Gaussia Luciferase cDNA insert whose expression was regulated under the T-REx™ system. The day before assay, cells were trypsinized and plated in 384-well tissue culture plates. The next day, compound dilutions in DMSO/media containing doxycycline were added to the wells and incubated at 37° C., 5% CO2.
as §2

[7] = tested on: multiple myeloma cell line NCI-H929; experiment: H929 Cell Viability Assay; assay type: cell-based, human; conditions: Homo sapiens, NCI-H929, 48 h, NCI-H929 cells, Celltiter-Glo
Procedure: as §1, with “NCI-H929” for “U266B1”, “cultured in Advanced RPMI 1640 media (Gibco®) supplemented with 6% fetal bovine serum, 2 mM Glutamine, and 1× Penicillin/Streptomycin. On the day of assay, cells were resuspended” for “cultured”, “Penicillin/Streptomycin and” for “Penicillin/Streptomycin. Cells were”
as §2

[8] = tested on: IL-2-FL/Gaussia Luciferase; experiment: Dox Induced IL2-FL-Gluc Assay; assay type: cell-based; conditions: for IC50: 24 hr Dox induction, 293FRT/TO cells, mean, read-out: 24 hr Dox Inducible IL2FLGluc 293FRT/TO: Mean IC50; for 24 hr Dox Inducible IL2FLGluc 293FRT/TO: IL2/PD1: ratio of IL2FLGluc IC50 to PD1ssGluc IC50, '<=>' given where both are I.A.
From the text: Flp-In 293 T-REx™ cells were transfected with pcDNA™5/FRT/TO plasmid inserted with cDNA encoding Gaussia Luciferase fused to the 3′ end of cDNA encoding full length IL-2 (amino acids 1-153). Transfected cells were selected for resistance to the selectable markers Hygromycin and Blasticidin to create a stable cell line that contained the IL-2-FL/Gaussia Luciferase cDNA insert whose expression was regulated under the T-REx™ system. The day before assay, cells were trypsinized and plated in 384-well tissue culture plates. The next day, compound dilutions in DMSO/media containing doxycycline were added to the wells and incubated at 37° C., 5% CO2.
as §2

| SMILES | Liver Microsome Stability (Multiple Species): Human - % Remaining after 30 min w/NADPH [1] [%] | Liver Microsome Stability (Multiple Species): Monkey - % Remaining after 30 min w/NADPH [2] [%] | Liver Microsome Stability (Multiple Species): Mouse - % Remaining after 30 min w/NADPH [3] [%] | Liver Microsome Stability (Multiple Species): Rat - % Remaining after 30 min w/NADPH [4] [%] | EC50 [5] [nM] | IC50 [6] [nM] | EC50 [7] [nM] | IC50 [8] [nM] | 24 hr Dox Inducible IL2FLGluc 293FRT/TO: IL2/PD1 [8] |
| --- | --- | --- | --- | --- | --- | --- | --- | --- | --- |
| O=C(Nc1nc([C@H]2CCCN2c2cnccn2)cs1)c1cccn1Cc1ccncc1 [Compound A30, (R)-N-(4-(1-(pyrazin-2-yl)pyrrolidin-2-yl)thiazol-2-yl)-1-(pyridin-4-ylmethyl)-1H-pyrrole-2-carboxamide] | 0.27 | 0.03 | 0.86 | 0.21 | – | – | – | – | – |
| O=C(Nc1nc([C@H]2CCCN2c2ncccn2)cs1)c1cccn1Cc1ccncc1 [Compound A32, (R)-1-(pyridin-4-ylmethyl)-N-(4-(1-(pyrimidin-2-yl)pyrrolidin-2-yl)thiazol-2-yl)-1H-pyrrole-2-carboxamide] | 0.24 | 0.05 | 0.17 | 0.55 | – | – | – | – | – |
| CC1=NC(/C=C/c2csc(NC(=O)c3cccn3Cc3ccncc3)n2)CO1 (stereo not shown) [Compound B14] | 3.9 | 6.02 | 2.9 | 3.31 | – | – | – | – | – |
| CN1C(=O)OCC1/C=C/c1csc(NC(=O)c2cccn2Cc2ccncc2)n1 (stereo not shown) [Compound B15, (E)-N-(4-(2-(3-methyl-2-oxooxazolidin-4-yl)vinyl)thiazol-2-yl)-1-(pyridin-4-ylmethyl)-1H-pyrrole-2-carboxamide] | 0.11 | 0.4 | 0.34 | 0.28 | – | – | – | – | – |
| CN1C(=O)CCCC1/C=C/c1csc(NC(=O)c2cccn2Cc2ccncc2)n1 (stereo not shown) [Compound B19, (E)-N-(4-(2-(1-methyl-6-oxopiperidin-2-yl)vinyl)thiazol-2-yl)-1-(pyridin-4-ylmethyl)-1H-pyrrole-2-carboxamide] | 0.05 | 0.03 | 0.83 | 1.18 | – | – | – | – | – |
| N#CC[C@@H]1CC[C@H]1Cn1cccc1C(=O)Nc1nc([C@H]2CCCN2c2ccccc2)cs1 [Compound C18, 1-(((1R,2S)-2-(cyanomethyl)cyclobutyl)methyl)-N-(4-((R)-1-phenylpyrrolidin-2-yl)thiazol-2-yl)-1H-pyrrole-2-carboxamide] | 0.07 | 0.08 | 0.15 | 0.2 | – | – | – | – | – |
| N#CCC1(Cn2cccc2C(=O)Nc2nc([C@H]3CCCN3c3ccccc3)cs2)COC1 [Compound C19, (R)-1-((3-(cyanomethyl)oxetan-3-yl)methyl)-N-(4-(1-phenylpyrrolidin-2-yl)thiazol-2-yl)-1H-pyrrole-2-carboxamide] | 3.59 | 8.4 | 3.48 | 3.9 | – | – | – | – | – |
| CC(CC#N)Cn1cccc1C(=O)Nc1nc([C@H]2CCCN2c2ccccc2)cs1 (stereo partly drawn) [Compound C20, 1-(3-cyano-2-methylpropyl)-N-(4-((R)-1-phenylpyrrolidin-2-yl)thiazol-2-yl)-1H-pyrrole-2-carboxamide] | 15.3 | 15 | 4.75 | 10.6 | – | – | – | – | – |
| O=C(Nc1nc([C@H]2CCCN2c2ccccc2)cs1)c1cccn1Cc1ccnc(F)c1 [Compound E26, (R)-1-((2-fluoropyridin-4-yl)methyl)-N-(4-(1-phenylpyrrolidin-2-yl)thiazol-2-yl)-1H-pyrrole-2-carboxamide] | – | – | – | – | > 25000 | 9.53 | 762 | 22.9 | 2.4 |
| O=C(Nc1nc([C@H]2CCCN2C2COC2)cs1)c1cccn1Cc1ccncc1 [Compound E49, (R)-N-(4-(1-(oxetan-3-yl)pyrrolidin-2-yl)thiazol-2-yl)-1-(pyridin-4-ylmethyl)-1H-pyrrole-2-carboxamide] | 0.09 | 0.09 | 1.59 | 1.92 | – | – | – | – | – |
| O=C(NC/C=C/c1csc(NC(=O)c2cccn2Cc2ccncc2)n1)c1ccccc1 [Compound E54, (E)-N-(4-(3-benzamidoprop-1-en-1-yl)thiazol-2-yl)-1-(pyridin-4-ylmethyl)-1H-pyrrole-2-carboxamide] | 0.37 | 0.17 | 1.05 | 6.61 | – | – | – | – | – |
| CC(C)c1cccnc1/C=C/c1csc(NC(=O)c2cccn2Cc2ccncc2)n1 [Compound E56, (E)-N-(4-(2-(3-isopropylpyridin-2-yl)vinyl)thiazol-2-yl)-1-(pyridin-4-ylmethyl)-1H-pyrrole-2-carboxamide] | – | – | – | – | > 25000 | 91.6 | 21500 | 4360 | 48 |
| CC(C)c1ccc(/C=C/c2csc(NC(=O)c3cccn3Cc3ccncc3)n2)nc1 [Compound E57, (E)-N-(4-(2-(5-isopropylpyridin-2-yl)vinyl)thiazol-2-yl)-1-(pyridin-4-ylmethyl)-1H-pyrrole-2-carboxamide] | – | – | – | – | 9510 | 9.67 | 6900 | 2160 | 220 |

Reference: patent publication US20230286973A1, “PROTEIN SECRETION INHIBITORS” (KEZAR LIFE SCIENCES, priority 2020, published 2023)
